Laboratory results published in patent US9045484B2, “Inhibitors of the BMP signaling pathway” (The Brigham and Women's Hospital, Inc., priority 2008, dated 2015).
Where two headings read alike, the source gives them in different places.

Columns and labels:
PDGFR-mediated signaling = assay: PDGF-induced AKT phosphorylation, cellular ELISA in PaSMCs; type: cell-based, murine
Method: To test the relative effects of dorsomorphin and structurally-related compounds upon PDGFR-mediated signaling, PDGF-induced AKT phosphorylation was measured by cellular ELISA via the detection of phospho-AKT in PaSMCs treated with compounds for 10 min. followed by PDGF for 30 min.

hematopoietic stem cells = assay: Frequency of hematopoietic stem cells in bone marrow, multicolor flow cytometry; type: in vivo, C57BL/6 mice; settings: 3 mg/kg/d IP for 30 days; versus vehicle-injected controls; FIG. 15
Method: Ten week-old male C57BL/6 mice were treated chronically with compound 13 (3 mg/kg/d IP) for 30 days, and bone marrow harvested and subjected to multicolor flow cytometry to quantify hematopoietic stem cell lineages based on cell surface marker expression.

KDR-mediated signaling = assay: Antagonism of KDR-mediated signaling (not shown); settings: compound 13 versus dorsomorphin
[1] = tested on: constitutively-active mutant form of ALK2
C57BL/6 wild-type mice = assay: 30-day treatment of wild-type mice, circulating blood cell lineages; type: in vivo, C57BL/6 mice
hepcidin [2] = assay: Pseudomonas aeruginosa-induced hepcidin expression in zebrafish embryos; type: in vivo; settings: 6 μM; 5 h after PsA injection; RT-qPCR; FIG. 6
Text: The following describes the development an in vivo model of inflammation-induced hepcidin expression that is amenable to facile genetic and pharmacological manipulation. The zebrafish is an attractive organism because it enables rapid knockdown of gene function via morpholino oligonucleotides and because it is highly amenable to pharmacological manipulation. Live Pseudomonas aeruginosa (PsA) were microinjected into the yolk of three-day-old zebrafish to induce a rapid and robust inflammatory response. It was determined that injection of bacteria induces robust expression of inflammatory markers. Embryos were injected with 5000 live PsA bacteria or phosphate PBS at 48 hpf and harvested 5 h later. TNFα, serum amyloid A (SAA), IL-1β, and IL-11α mRNA levels were measured by RT-qPCR (FIG. 5; *P<0.001 vs PBS, #P<0.002 vs. PBS). […] Next, it was examined whether the inflammatory response evoked by PsA in zebrafish is accompanied by induction of hepcidin.

[3] = Plasma pharmacokinetics after single bolus intraperitoneal administration; type: in vivo, C57B16 mice; settings: IP 3 mg/kg
Method: The pharmacokinetics of 13.HCl was evaluated after a single bolus intraperitoneal administration (3 mg/kg) in male and female C57B16 mice on a commercial rodent diet and water ad libitum prior to the study. Compound plasma levels were determined by LC-MS/MS and the pharmacokinetic parameters were determined using WinNonlin software (Pharsight Co., Mountain View, Calif.). Dosing solutions (0.6 mg/mL) were prepared in a vehicle comprising 2% hydropropyl-β-cyclodextrin in phosphate-buffered saline (PBS). Each time point (pre-dose, 5, 10, 15, 30, 60, 120, 240, 480, 1440 min post-dose) was dosed as N=3/sex. Each blood sample was collected via cardiac puncture after euthanasia with CO2 and placed in chilled tubes containing sodium heparin. Samples were centrifuged at 4° C. at 13,000 rpm for 5 min followed by extracted with acetonitrile and then analyzed.
The pharmacokinetics of 44.HCl and 37.HCl were evaluated after a single bolus intraperitoneal administration (3 mg/kg) in male C57B16 mice on a commercial rodent diet and water ad libitum prior to the study. Compound plasma levels were determined by LC-MS/MS and the pharmacokinetic parameters were determined using WinNonlin software (Pharsight Co., Mountain View, Calif.). Dosing solutions (0.6 mg/mL) were prepared in a vehicle comprising 2% hydropropyl-β-cyclodextrin in phosphate-buffered saline (PBS). Each time point (pre-dose, 5, 10, 15, 30, 60, 120, 240, 480, 1440 min post-dose) was dosed as
N=3/sex. Each blood sample was collected via cardiac puncture after euthanasia with CO2 and placed in chilled tubes containing sodium heparin. Samples were centrifuged at 4° C. at 13,000 rpm for 5 min followed by extracted with acetonitrile and then analyzed.

[4] = C57BL/6, mouse, in vivo, ip, 3 mg/kg, 8 h
Method: Preliminary pharmacokinetic studies were performed by intraperitoneally administering to wild-type mice (C57BL/6) one dose (3 mg/kg) of compound 13 (FIG. 23). Pharmacokinetics via plasma levels of compound 13 were serially measured in individual mice at varying intervals after injection by LC-MS/MS (n=3 mice each point, mean±s.d.).

[5] = tested on: turpentine-treated C57BL/6 mice; assay: Established turpentine-induced anemia of inflammation (rescue); type: in vivo
Method: After the establishment of anemia, treatment with either vehicle or compound 13 (3 mg/kg/d IP) is begun concurrently with an additional 3 weeks of weekly turpentine injections, to assess the potential for rescuing established turpentine-induced anemia of inflammation. […] Shaded areas indicate normative values in C57BL/6 mice for each parameter.

hepcidin [6] = assay: Hepatic hepcidin expression in the steady state after 30 days treatment; type: in vivo, C57BL/6 mice; settings: 3 mg/kg/d IP for 30 days; FIG. 16
Method: Ten-week-old male C57BL/6 mice fed a normal iron replete diet were treated chronically with compound 13 (3 mg/kg/d IP) or vehicle for 30 days, and hepatic hepcidin mRNA levels were measured by quantitative RT-PCR.

hepcidin [7] = assay: Turpentine-induced hepatic hepcidin expression time course; type: in vivo, C57BL/6 mice; settings: 3 mg/kg IP every 12 h; compared to vehicle; FIG. 13
[8] = 3 mg/kg/d IP for 30 days, average (n = 4)

## c1ccc2c(-c3cnn4cc(-c5ccc(N6CCNCC6)cc5)cnc34)ccnc2c1 [Compound 13, 4-[6-(4-piperazin-1-ylphenyl)pyrazolo[1,5-a]pyrimidin-3-yl]quinoline]
PDGFR-mediated signaling
  selectivity for BMP signaling versus PDGF signaling: improves upon the selectivity
PDGFR-mediated signaling; Mus musculus, PASMC, compounds 10 min, then PDGF 30 min, FIG. 2, read-out: functional IC50, PDGF-induced AKT phosphorylation
  IC50: ~2000 nM
Hematopoietic stem cells
  frequency of hematopoietic stem cells in the marrow: No significant difference
KDR-mediated signaling
  antagonism of KDR-mediated signaling: five- to six-fold reduction
[1]; FOP mutant mice, 3 mg/kg ip twice daily, FIG. 14
  ectopic calcification and disability: prevented the ectopic calcification and disability
[1]; wild type mice, 3 mg/kg BID
  skeletal development: exhibited normal skeletal development
C57BL/6 wild-type mice; 3 mg/kg/d IP for 30 days
  myelosuppression, thrombocytopenia, anemia or erythrocytosis: did not appear to cause myelosuppression, thrombocytopenia, anemia or conversely erythrocytosis
C57BL/6 wild-type mice; [8]
  % Lymphocyte: 63.1%
  % Monocyte: 3.8%
  % Neutrophil: 30.8%
  % Reticulocyte: 2.6%
  Hb: 11.9 g/dL
  Hct: 43.8%
  MCHC: 27.3 g/dL
  MCV: 48.5 fL
  Platelet count: 8.305e+11 L⁻¹
  RBC: 9e+12 L⁻¹
  RDW: 18.6%
  Total WBC: 1.9e+09 L⁻¹
C57BL/6 wild-type mice; 30 days treatment, compared to vehicle-treated controls, data not shown
  serum iron in the steady state: did not cause an elevation of serum iron
Hepcidin [2]
  PsA-induced induction of hepcidin mRNA: almost completely blocked
[3]; C57B16, mouse, female mice, read-out: tmax
  Tmax: < 5 min
[3]; C57B16, mouse, male mice, read-out: tmax
  Tmax: < 5 min
[3]; female mice
  AUC∞: 1030 ng·h/mL
  Cmax: 1290 nM
  Tmax: < 5 min
  t1/2: 1.6 h
[3]; male mice
  AUC∞: 994 ng·h/mL
  Cmax: 1540 nM
  Tmax: < 5 min
  t1/2: 1.6 h
[4]
  plasma levels relative to in vitro IC50 for BMP4-mediated activation of Smad1/5/8: 5 fold
[5]; 3 mg/kg/d IP for final 3 weeks of 6 weeks turpentine, FIG. 17
  blood hemoglobin: significant improvement
[5]; 3 mg/kg/d IP for final 3 weeks of 6 weeks turpentine, FIG. 18
  hematocrit: restoration of hematocrit to values within the normal range
[5]; 3 mg/kg/d IP for final 3 weeks of 6 weeks turpentine, FIG. 19
  mean corpuscular volume (MCV): restores MCV to low-normal levels
[5]; FIG. 21
  neutrophilia: induced neutrophilia regardless of treatment with vehicle or compound 13
[5]; cotreatment for final 3 weeks of 6 weeks turpentine, FIG. 20
  reticulocyte counts: restores high-normal reticulocyte counts
Hepcidin [6]
  basal hepatic hepcidin mRNA levels relative to vehicle-treated mice: 40%
Hepcidin [7]
  hepatic hepcidin elevation after turpentine: effectively suppressed hepcidin elevation at 24-96 hours
